Where “and” joins values, the source holds several entries; their conditions need not be identical. Equal entries are not always repeated.
How the values were obtained:
[1] = biological target: ASH1L (amino acids 2046–2330) (Homo sapiens, UniProt Q9NR48); assay: Histone methyltransferase (HMT) assay; conditions: for IC50: IC50, HMT assay with nucleosomes as substrate, mean ± s.d. from two independent experiments
Experimental: The mixtures of ASH1L and compounds were incubated at room temperature for 1 h. […] The reaction was continued for 1 h at room temperature, then quenched by addition of 10% Trichloroacetic acid (TCA) and then transferred to 96-well filter plates (Millipore sigma, MSFBN6B), washed twice with 10% TCA and then once with 200-proof ethanol. After extensive drying, 70 µL of Microscint-O scintillant (PerkinElmer) was added and counts per minute (CPM) were measured using a MicroBeta microplate counter (PerkinElmer). Titration curves were plotted using Prism (GraphPad Prism 8.0.0.) and IC50 values were calculated.

[2] = biological target: ASH1L SET domain (2069–2288) (Homo sapiens, UniProt Q9NR48); assay: Isothermal titration calorimetry (ITC); conditions: for kcal/mole of injectant: ITC isotherm
Experimental: All samples were extensively degassed by vacuum aspiration for 20 min prior to measurements. […] All titration data were analyzed with a single-site fitting model using Origin 7.0.

MOLM13 cells = assay: MTT cell viability assay; type: cell-based, human; conditions: MTT, 7 days
Experimental: (§1) FBS and 1% penicillin/streptomycin. […] Media was changed on day 3 or 4 and compounds were resupplied. […] Cell suspensions (100 μL) were transferred to the 96-well plates for each sample in quadruplicate at the time of media change. At day 7, 10 µL of MTT reagent (M6494, Molecular Probes™) was added to each well of the 96 well plate and incubated at 37 °C for 4 h. The formazan was then solubilized by adding 100 µL acidified 10% SDS solution and incubated at 37 °C overnight. Plates were read for absorbance at 570 nm using a PHERAstar BMG microplate reader. The experiments were performed two times in quadruplicates with calculation of mean and SD for each condition. Data were analyzed in Prism 8.0.0 to obtain GI50 values.
(§2) Supplementary Figure 7. […] (a)
(§3) Titration curves from the MTT cell viability assay performed after 4, 7, and 11 (or 10) days of
(§4) Titration curves from the MTT cell viability assay performed after 7 days of treatment of KOPN8 ,
(§5) MOLM13 and MV4;11 cell lines harboring MLL1 translocation (MLL1-r) or K562 cell line (non-
(§6) Representative graphs are shown
(§7) from two independent MTT experiments performed for each cell line.

MV4;11 cells = assay: MTT cell viability assay; type: cell-based, human; conditions: MTT, 7 days
Experimental: as §1, §2, §3, §4, §5, §6, §7

[3] = system: MLL leukemia cells (MV4;11, MOLM13, KOPN8, RS4;11); assay: MTT cell viability assay, MLL leukemia cells as a group; type: cell-based, human; conditions: Homo sapiens, MLL leukemia cells
Experimental: Human leukemia cells K562, MV4;11 and RS4;11 (purchased from ATCC) and KOPN8, MOLM13 (purchased from DSMZ) were cultured in RPMI 1640 (Invitrogen) supplemented with 10% heat inactivated (h.i.) FBS and 1% penicillin/streptomycin (Invitrogen). SET2 cells (purchased from DSMZ) were cultured in RPMI 1640 supplemented with 20% h.i. FBS and 1% penicillin/streptomycin. Cells were plated at 1 × 10^5 to 2 × 10^5 cells/mL depending on cell line and treated with 0.25% DMSO or varying concentrations of compounds and incubated at 37 °C, 5% CO2 incubator for 7 days. Media was changed on day 3 or 4 and compounds were resupplied. […] Cell suspensions (100 μL) were transferred to the 96-well plates for each sample in quadruplicate at the time of media change. At day 7, 10 µL of MTT reagent (M6494, Molecular Probes™) was added to each well of the 96 well plate and incubated at 37 °C for 4 h. The formazan was then solubilized by adding 100 µL acidified 10% SDS solution and incubated at 37 °C overnight. Plates were read for absorbance at 570 nm using a PHERAstar BMG microplate reader. The experiments were performed two times in quadruplicates with calculation of mean and SD for each condition. Data were analyzed in Prism 8.0.0 to obtain GI50 values.
Supplementary Figure 4. Cell viability assay for AS-6 in MLL leukemia cell lines. Titration curves from the MTT cell viability assay performed after 7 days of treatment of human MLL1- […]
replicates. Representative graphs are shown from two independent MTT experiments performed […]
as §2
Titration curves from the MTT cell viability assay performed after 4, 7, and 11 (or 10) days of […]
Titration curves from the MTT cell viability assay performed after 7 days of treatment of KOPN8 , MOLM13 and MV4;11 cell lines harboring MLL1 translocation (MLL1-r) or K562 cell line (non- […]
Representative graphs are shown from two independent MTT experiments performed for each cell line. GI50 values correspond to […]

[4] = Log[compound] (M) -5.30642 (4: -5.30643)

Compound: NC(=S)c1cccc(-c2c[nH]c3ccccc23)c1 [compound 2]
- IC50 [1]: 50 µM and 50.5 µM
- % activity ([1]; Log[compound] (M) -2.92082): -0.3683% and -0.3506%
- % activity ([1]; Log[compound] (M) -3.39794): 16.0357% and 15.8766%
- % activity ([1]; Log[compound] (M) -3.87506): 38.4321% and 41.7641%
- % activity ([1]; Log[compound] (M) -4.35218): 49.8512% and 57.5848%
- % activity ([1]; Log[compound] (M) -4.8293): 59.6441% and 71.2665%
- % activity [1, 4]: 79.3978% and 82.615%
- % activity ([1]; Log[compound] (M) -5.78355): 85.6112% and 97.322%
- % activity ([1]; Log[compound] (M) -6.26067): 88.298% and 98.5328%

Compound: NC(=S)c1cccc(-c2cn(CCO)c3ccccc23)c1 [compound 3]
- IC50 [1]: 15 µM
- % activity ([1]; Log[compound] (M) -3.69897): 9.186% and 9.699%
- % activity ([1]; Log[compound] (M) -4.17609): 18.9348% and 13.291%
- % activity ([1]; Log[compound] (M) -4.65321): 40.9235% and 30.2223%
- % activity ([1]; Log[compound] (M) -5.13033): 68.7027% and 45.0281%
- % activity ([1]; Log[compound] (M) -5.60746): 106.01% and 80.1368%
- % activity ([1]; Log[compound] (M) -6.08458): 97.0728% and 88.0528%
- % activity ([1]; Log[compound] (M) -6.5617): 107.183% and 116.125%

Compound: NCc1ccc2c(-c3cccc(C(N)=S)c3)cn(CCO)c2c1 [AS-5]
- improvement of the activity versus the original fragment hit [1]: over 200 fold
- IC50 [1]: 4 µM
- % activity ([1]; Log[compound] (M) -3.69897): 2.662% and 1.923%
- % activity ([1]; Log[compound] (M) -4.17609): 6.814% and 8.134%
- % activity ([1]; Log[compound] (M) -4.65321): 17.9312% and 20.7044%
- % activity ([1]; Log[compound] (M) -5.13033): 34.0137% and 31.5644%
- % activity ([1]; Log[compound] (M) -5.60746): 45.8867% and 60.6988%
- % activity ([1]; Log[compound] (M) -6.08458): 80.7749% and 70.6538%
- % activity ([1]; Log[compound] (M) -6.5617): 92.8804% and 81.5471%
- % activity ([1]; Log[compound] (M) -7.03882): 105.285% and 87.6496%
- Kd [2]: 6.2 µM
- N (stoichiometry of binding) ([2]; ITC): 1.1
- kcal/mole of injectant ([2]; ASH1L-AS-5 molar ratio 0.12083): -11648.3 kcal/mol
- kcal/mole of injectant ([2]; ASH1L-AS-5 molar ratio 0.18186): -13231.7 kcal/mol
- kcal/mole of injectant ([2]; ASH1L-AS-5 molar ratio 0.2433): -11678.6 kcal/mol
- kcal/mole of injectant ([2]; ASH1L-AS-5 molar ratio 0.30515): -11475.1 kcal/mol
- kcal/mole of injectant ([2]; ASH1L-AS-5 molar ratio 0.36741): -11317.2 kcal/mol
- kcal/mole of injectant ([2]; ASH1L-AS-5 molar ratio 0.43008): -10998.9 kcal/mol
- kcal/mole of injectant ([2]; ASH1L-AS-5 molar ratio 0.49316): -10679.7 kcal/mol
- kcal/mole of injectant ([2]; ASH1L-AS-5 molar ratio 0.55666): -10389.6 kcal/mol
- kcal/mole of injectant ([2]; ASH1L-AS-5 molar ratio 0.62056): -10042.7 kcal/mol
- kcal/mole of injectant ([2]; ASH1L-AS-5 molar ratio 0.68487): -9579.7 kcal/mol
- kcal/mole of injectant ([2]; ASH1L-AS-5 molar ratio 0.7496): -9123.74 kcal/mol
- kcal/mole of injectant ([2]; ASH1L-AS-5 molar ratio 0.81473): -8548.86 kcal/mol
- kcal/mole of injectant ([2]; ASH1L-AS-5 molar ratio 0.88027): -7938.47 kcal/mol
- kcal/mole of injectant ([2]; ASH1L-AS-5 molar ratio 0.94623): -7340.59 kcal/mol
- kcal/mole of injectant ([2]; ASH1L-AS-5 molar ratio 1.0126): -6928.78 kcal/mol
- kcal/mole of injectant ([2]; ASH1L-AS-5 molar ratio 1.07937): -5852.59 kcal/mol
- kcal/mole of injectant ([2]; ASH1L-AS-5 molar ratio 1.14656): -5058.91 kcal/mol
- kcal/mole of injectant ([2]; ASH1L-AS-5 molar ratio 1.21416): -4429.92 kcal/mol
- kcal/mole of injectant ([2]; ASH1L-AS-5 molar ratio 1.28216): -3902.54 kcal/mol
- kcal/mole of injectant ([2]; ASH1L-AS-5 molar ratio 1.35058): -3390.49 kcal/mol
- kcal/mole of injectant ([2]; ASH1L-AS-5 molar ratio 1.41941): -2944.08 kcal/mol
- kcal/mole of injectant ([2]; ASH1L-AS-5 molar ratio 1.48865): -2536.04 kcal/mol
- kcal/mole of injectant ([2]; ASH1L-AS-5 molar ratio 1.5583): -2250.86 kcal/mol
- kcal/mole of injectant ([2]; ASH1L-AS-5 molar ratio 1.62836): -1941.24 kcal/mol
- kcal/mole of injectant ([2]; ASH1L-AS-5 molar ratio 1.69883): -1790.53 kcal/mol
- kcal/mole of injectant ([2]; ASH1L-AS-5 molar ratio 1.76971): -1545.36 kcal/mol
- kcal/mole of injectant ([2]; ASH1L-AS-5 molar ratio 1.841): -1413.63 kcal/mol
- kcal/mole of injectant ([2]; ASH1L-AS-5 molar ratio 1.9127): -1226.06 kcal/mol

Compound: NCc1ccc2c(-c3cccc(C(N)=S)c3)c[nH]c2c1 [compound 4]
- IC50 [1]: 23 µM and 23.5 µM
- % activity ([1]; Log[compound] (M) -3.39794): 6.033% and 2.5275%
- % activity ([1]; Log[compound] (M) -3.87506): 27.0096% and 20.8578%
- % activity ([1]; Log[compound] (M) -4.35218): 40.1717% and 36.6844%
- % activity ([1]; Log[compound] (M) -4.8293): 67.3184% and 49.0775%
- % activity [1, 4]: 79.0319% and 80.9812%
- % activity ([1]; Log[compound] (M) -5.78355): 102.423% and 86.0958%
- % activity ([1]; Log[compound] (M) -6.26067): 109.022% and 106.93%
- % activity ([1]; Log[compound] (M) -6.73779): 106.089% and 90.3699%

Compound: CS(=O)(=O)N1CCC(n2cc(-c3cccc(C(N)=S)c3)c3ccc(CNC(=O)Cc4c[nH]cn4)cc32)CC1 [AS-6]
- % activity MOLM13 (MOLM13 cells; log[compound] -4.30103): 44.6695% and 48.1072% and 45.3243%
- % activity MOLM13 (MOLM13 cells; log[compound] -4.60206): 58.0929% and 58.2566% and 58.584% and 59.3207%
- % activity MOLM13 (MOLM13 cells; log[compound] -4.90309): 66.769% and 64.8864% and 66.8508%
- % activity MOLM13 (MOLM13 cells; log[compound] -5.20412): 75.8543% and 77.8187% and 79.7831% and 79.8649%
- % activity MOLM13 (MOLM13 cells; log[compound] -5.50515): 91.8969% and 80.7653% and 85.3489% and 88.2955%
- % activity MOLM13 (MOLM13 cells; log[compound] -5.80618): 93.7794% and 90.9965% and 88.7047% and 81.3382%
- % activity MOLM13 (MOLM13 cells; log[compound] -6.10721): 102.456% and 101.555% and 98.1993% and 97.7901%
- % activity MV4;11 (MV4;11 cells; log[compound] -4.30103): 54.5576% and 57.6227% and 55.8763% and 56.7674%
- % activity MV4;11 (MV4;11 cells; log[compound] -4.60206): 56.8386% and 61.0443% and 58.6207% and 61.2225%
- % activity MV4;11 (MV4;11 cells; log[compound] -4.90309): 61.2938% and 67.4597% and 60.9374%
- % activity MV4;11 (MV4;11 cells; log[compound] -5.20412): 76.1205% and 82.5002% and 82.4289% and 79.6846%
- % activity MV4;11 (MV4;11 cells; log[compound] -5.50515): 94.9746% and 100.606% and 92.9787% and 93.7272%
- % activity MV4;11 (MV4;11 cells; log[compound] -5.80618): 95.5805% and 97.9685% and 95.0102% and 103.208%
- % activity MV4;11 (MV4;11 cells; log[compound] -6.10721): 95.9013% and 98.3962% and 101.354% and 104.348%
- GI50 [3]: ~50 µM

— paper PMC8121805, “Discovery of first-in-class inhibitors of ASH1L histone methyltransferase with anti-leukemic activity” (Nature Communications, 2021)
